Test results: US5348946A, “Heteroanthracycline antitumor analogs” (Biochem Immunosystems, Inc., priority 1991, dated 1994)

How the values were obtained:
[1] = test system: DMS 114; experiment: in vitro cytotoxicity evaluation, Small Cell Lung Cancer; type: cell-based; conditions: Homo sapiens, 48 h, DMS 114, two days, sulforhodamine B
Protocol: BCH-255 (compound 39) was subjected to an in vitro cytotoxicity evaluation against 59 tumor cell lines to assess its potential as an anticancer drug. These assays were carried out at the Developmental Therapeutics Program, Division of Cancer Treatment, National Cancer Institute (Bethesda, Md., USA). The method consists of incubating varying concentrations of the drug with an inoculum of cells for two days. At the end of the assay, the number of viable cells is estimated with a dye, sulforhodamine B. The protocol is described in M. R. Boyd, "Status of the NCI Preclinical Antitumor Drug Discovery Screen", Principles and Practices of Oncology, 3, pp. 1-12, 1989.
There are three parameters calculated: GI50, the log molar concentration of drug required to inhibit cell growth by 50%; TGI, the log molar concentration of drug required to completely block cell growth; LC50, the log molar concentration of drug required to reduce the original cell number by 50%. It should be noted that the first two parameters (GI50 and TGI) relate to antiproliferation effects while the third one (LC50) indicates true cytotoxicity.

[2] = test system: OVCAR-8; experiment: in vitro cytotoxicity evaluation, Ovarian Cancer; type: cell-based; conditions: Homo sapiens, 48 h, OVCAR-8, two days, sulforhodamine B
Protocol: (§1) These assays were carried out at the Developmental Therapeutics Program, Division of Cancer Treatment, National Cancer Institute (Bethesda, Md., USA). The method consists of incubating varying concentrations of the drug with an inoculum of cells for two days.
(§2) It should be noted that the first two parameters (GI50 and TGI) relate to antiproliferation effects while the third one (LC50) indicates true cytotoxicity.

[3] = test system: OVCAR-5; experiment: in vitro cytotoxicity evaluation, Ovarian Cancer; type: cell-based; conditions: Homo sapiens, 48 h, OVCAR-5, two days, sulforhodamine B
Protocol: as §1, §2

[4] = test system: OVCAR-4; experiment: in vitro cytotoxicity evaluation, Ovarian Cancer; type: cell-based; conditions: Homo sapiens, 48 h, OVCAR-4, two days, sulforhodamine B
Protocol: as §1, §2

[5] = test system: IGROV-1; experiment: in vitro cytotoxicity evaluation, Ovarian Cancer; type: cell-based; conditions: Homo sapiens, 48 h, IGROV-1, two days, sulforhodamine B
Protocol: as §1, §2

[6] = test system: SK-OV-3; experiment: in vitro cytotoxicity evaluation, Ovarian Cancer; type: cell-based; conditions: Homo sapiens, 48 h, SK-OV-3, two days, sulforhodamine B
Protocol: as §1, §2

[7] = test system: OVCAR-3; experiment: in vitro cytotoxicity evaluation, Ovarian Cancer; type: cell-based; conditions: Homo sapiens, 48 h, OVCAR-3, two days, sulforhodamine B
Protocol: as §1, §2

[8] = test system: HI-60TB; experiment: in vitro cytotoxicity evaluation, Leukemia; type: cell-based; conditions: Homo sapiens, 48 h, two days, sulforhodamine B
[9] = test system: 59 tumor cell lines; experiment: in vitro cytotoxicity evaluation, whole panel; type: cell-based, human
Protocol: as §1, §2

[10] = test system: NCI-H23; experiment: in vitro cytotoxicity evaluation, Non-Small Cell Lung Cancer; type: cell-based; conditions: Homo sapiens, 48 h, NCI-H23, two days, sulforhodamine B
Protocol: as §1, §2

[11] = test system: NCI=H322M; experiment: as above; type: cell-based; conditions: Homo sapiens, 48 h, two days, sulforhodamine B
Protocol: as §1, §2

[12] = read-out: LOG10 G150 (GI50) (converted)
[13] = read-out: Log10 TGI (converted)
[14] = read-out: Log10 LC50 (converted)

In the case of `COc1c2c(c(OC)c3c(=O)c4ccccc4sc13)CS(=O)(=O)[C@@H]2O[C@H]1C[C@H](N)[C@H](O)[C@H](C)O1` [BCH-255, (1S ) 1-daunosamine-4-11-dimethoxy-5-oxo-5-H-1,3-dihydrothioxantheno [2,3-c] thiophene-2,2-dioxide], the GI50 [1, 12] is reported as 17.8 µM, the IC (total growth inhibition (TGI)) [1, 13] is reported as 37.2 µM and the GI50 [2, 12] is reported as 19.5 µM. For the same compound, the CC50 [2, 14] was 74.1 µM, the IC (total growth inhibition (TGI)) [2, 13] was 38 µM and the GI50 [3, 12] was 39.8 µM. It also gave a CC50 [3, 14] greater than 100 µM, an IC (total growth inhibition (TGI)) ([3]; read-out: Log10 TGI) greater than 100 µM and a GI50 [4, 12] of 18.2 µM. It also gave a CC50 [4, 14] of 64.6 µM, an IC (total growth inhibition (TGI)) [4, 13] of 34.7 µM and a GI50 [5, 12] of 16.6 µM. It also gave a CC50 [5, 14] of 87.1 µM, an IC (total growth inhibition (TGI)) [5, 13] of 38 µM and a GI50 [6, 12] of 19.1 µM. It also gave a CC50 [6, 14] of 85.1 µM, an IC (total growth inhibition (TGI)) [6, 13] of 40.7 µM and a GI50 [7, 12] of 15.5 µM. For the same compound, the CC50 [7, 14] was 64.6 µM, the IC (total growth inhibition (TGI)) [7, 13] was 31.6 µM and the GI50 [8, 12] was 15.8 µM. The CC50 [8, 14] was 69.2 µM, the IC (total growth inhibition (TGI)) [8, 13] was 33.1 µM and the “DELTA of Log10 TGI” value ([9]; DELTA over the panel) was 0.13. For the same compound, the CC50 ([9]; Homo sapiens, 48 h, MG MID over the panel, read-out: MG MID of Log10 LC50 (converted)) was 75.9 µM, the IC (TGI) ([9]; Homo sapiens, 48 h, MG MID over the panel, read-out: MG MID of Log10 TGI (converted)) was 40.7 µM and the GI50 ([9]; Homo sapiens, MG MID over the panel, read-out: MG MID of LOG10 G150 (GI50) (converted)) was 20 µM. For the same compound, the “RANGE of Log10 TGI” value ([9]; RANGE over the panel) was 0.52, the cytotoxicity ([9]; solid tumors and leukemia cell lines) was “all the cell lines of solid tumors and leukemia showed cytotoxcity to the drug” and the “spectrum of antitumor activity” value ([9]; tumor cell line panel) was “wide spectrum of antitumor activity”. For the same compound, the GI50 [10, 12] was 50.1 µM, the CC50 [10, 14] was greater than 100 µM and the IC (total growth inhibition (TGI)) ([10]; read-out: Log10 TGI) was greater than 100 µM. For the same compound, the GI50 [11, 12] was 19.1 µM, the CC50 [11, 14] was 100 µM and the IC (total growth inhibition (TGI)) ([11]; read-out: Log10 TGI) was 43.7 µM.
